Common to all, as to format: in vivo
One series concerns cat flea. Nature of the series: Insecticidal experiment on cat flea, thin film in culture dish. The following applies: Ctenocephalides felis, 72 h, read-out: mortality rate, cat flea. In a few lines:
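Compound in acetone (100 mg/L) was dried as a film in a culture dish at a dose of 1 μg/cm^2. Ten adult cat fleas, mixed sex, were enclosed at 25° C.; mortality was scored at 72 h, with three repeats.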

In a further series the test system is Spodoptera exigua. As to the kind of experiment: Insecticidal activity against Spodoptera exigua, leaf disc dipping feeding method. The following applies: foliar, 72 h, 0.625 mg/L, 3 days after the administration, read-out: mortality rate against Spodoptera exigua. In a few lines:
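Compound in acetone/methanol (1:1), diluted with water containing 0.1% Tween-80; leaf discs dipped for 10 s, air-dried, then fed to Spodoptera exigua (10 insects/dish, 3 replicates). Held at 25° C, 14hL:10hD. Deaths counted on days 1, 2 and 3 after treatment to give mortality.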

Another series relates to Chilo suppressalis. Nature of the series: Insecticidal activity against Chilo suppressalis, sprayed rice stems. The conditions noted are these: 72 h, 0.625 mg/L, 3 days after the administration, 3rd-instar larvae, read-out: mortality rate against Chilo suppressalis. In a few lines:
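Rice seedlings at 4-5 leaf stage sprayed whole with compound in acetone/methanol diluted in 0.1% Tween-80 water. Air-dried basal stem pieces fed to 3rd-instar larvae, 10 per dish, at 26-28° C. Live larvae counted 3 days after treatment.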

Series [1] has as its system Franklinella occidentalis. As to the kind of experiment: Insecticidal activity against Franklinella occidentalis nymphs, sprayed bean leaves.
A further series concerns Mythimna separata. Nature of the series: Insecticidal activity against Mythimna separata, Airbrush spray on maize leaf pieces. The conditions noted are these: 72 h, 0.05 mg/L, 3 days after the administration, 3rd-instar larvae, read-out: mortality rate against Mythimna separata. In a few lines: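 Maize leaf pieces (2 cm) sprayed on both sides by airbrush at 10 psi, 0.5 mL, with compound in water containing 0.1% Tween-80, then shade-dried. Ten 3rd-instar larvae per treatment, 3 replicates, held at 25 °C and 60–70% RH. Mortality scored 3 days after treatment.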

Another series relates to Myzus persicae. As to the kind of experiment: Insecticidal activity against Myzus persicae, Airbrush spray on cabbage leaves. The following applies: 50 mg/L, after 48 h, read-out: mortality rate against Myzus persicae. In short, it runs like this: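 Cabbage leaf discs carrying 15-30 aphids, winged aphids removed, on moist filter paper; compound in acetone/methanol diluted into 0.1% Tween-80 water, airbrush-sprayed at 10 psi, 0.5 mL, 3 replicates. Held at 25° C, 60-70% RH; live insects counted at 48 h for mortality.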

Another series deals with Diamondback moth. Nature of the series: Insecticidal activity against Diamondback moth, Airbrush spray on cabbage leaf discs. The conditions noted are these: Plutella xylostella, foliar, 72 h, 3 days after the administration; for mortality at 0.156 µg/mL: 0.156 mg/L, read-out: Mortality rate (%, 3 days after the administration) 0.156 mg/L; for mortality at 0.156 µg/mL / mortality at 0.313 µg/mL / mortality at 10 µg/mL: Diamondback moth; for mortality at 0.313 µg/mL: 0.313 mg/L, read-out: Mortality rate (%, 3 days after the administration) 0.313 mg/L; for mortality at 1.25 µg/mL: 1.25 mg/L, 3rd-instar larvae, read-out: mortality rate against Diamondback moth; for mortality at 10 µg/mL: 10 mg/L, read-out: Mortality rate (%, 3 days after the administration) 10 mg/L. In a few lines:
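Cabbage leaf discs (2 cm) sprayed front and back by Airbrush at 10 psi with compound diluted in water containing 0.1% Tween-80 (acetone/methanol stock). After shade drying, 10 3rd-instar larvae per disc, 3 replicates, held at 25° C, 60–70% RH; mortality from living larvae counted at 3 days.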

The text below walks through data of patent publication US20240199552A1, “AMIDE COMPOUND AND USE THEREOF” (Metisa Biotechnology Co., Ltd, priority 2021, published 2024).

`C=CCN(C(=O)c1ccc(F)nc1)c1cccc(C(=O)Nc2c(Br)cc(C(F)(C(F)(F)F)C(F)(F)F)cc2C(F)(F)F)c1F` [Compound 19]: in the series on cat flea, the mortality at 1 µg/cm2 was greater than 90%. The mortality at 0.625 µg/mL in the series with Spodoptera exigua is greater than 90%. The mortality at 0.625 µg/mL in the series on Chilo suppressalis was greater than 90%. Besides, in series [1], the “Mortality rate (%, 3 days after the administration) 10 mg/L” value was 100% and the “Mortality rate (%, 3 days after the administration) 100 mg/L” value was determined as 100%. The mortality at 0.05 µg/mL in the series with Mythimna separata is greater than 90%. Besides, the mortality at 50 µg/mL in the series with Myzus persicae was greater than 90%. Also, in the series on Diamondback moth, the mortality at 0.156 µg/mL came to 100%, the mortality at 0.313 µg/mL came out at 100%, the mortality at 1.25 µg/mL is greater than 90% and the mortality at 10 µg/mL was found to be 100%.

For the compound `C=CCN(C(=O)c1ccc(F)cc1)c1cccc(C(=O)Nc2c(Br)cc(C(F)(C(F)(F)F)C(F)(F)F)cc2C(F)(F)F)c1F` [Compound 7], the mortality at 1 µg/cm2 in the series with cat flea is greater than 90%. In the series with Spodoptera exigua, the mortality at 0.625 µg/mL was greater than 90%. Further, the mortality at 0.625 µg/mL in the series on Chilo suppressalis was greater than 90%. Also, in series [1], the “Mortality rate (%, 3 days after the administration) 10 mg/L” value was found to be 91.11% and the “Mortality rate (%, 3 days after the administration) 100 mg/L” value was 100%. In the series with Mythimna separata, the mortality at 0.05 µg/mL was greater than 90%. Also, in the series with Myzus persicae, the mortality at 50 µg/mL is greater than 90%. Moreover, in the series on Diamondback moth, the mortality at 0.156 µg/mL worked out at 100%, the mortality at 0.313 µg/mL is 100%, the mortality at 1.25 µg/mL was greater than 90% and the mortality at 10 µg/mL came out at 100%.

Regarding `C#CCN(C(=O)c1ccccc1)c1cccc(C(=O)Nc2c(Br)cc(C(F)(C(F)(F)F)C(F)(F)F)cc2C(F)(F)F)c1F` [Compound 31], the mortality at 1 µg/cm2 in the series with cat flea is greater than 90%. Besides, in the series with Spodoptera exigua, the mortality at 0.625 µg/mL was greater than 90%. The mortality at 0.625 µg/mL in the series with Chilo suppressalis was greater than 90%. Moreover, in series [1], the “Mortality rate (%, 3 days after the administration) 10 mg/L” value worked out at 97.78% and the “Mortality rate (%, 3 days after the administration) 100 mg/L” value is given as 100%. The mortality at 0.05 µg/mL with Mythimna separata is greater than 90%. In the series on Myzus persicae, the mortality at 50 µg/mL was greater than 90%. In the series with Diamondback moth, the mortality at 0.156 µg/mL came to 100%, the mortality at 0.313 µg/mL amounted to 100%, the mortality at 1.25 µg/mL was greater than 90% and the mortality at 10 µg/mL worked out at 100%.
